Data taken from US10640544B2, “Antibody-coupled cyclic peptide tyrosine tyrosine compounds as modulators of neuropeptide Y receptors” (JANSSEN PHARMACEUTICA NV, priority 2016, dated 2020).

What was measured:
[1] = Weight loss in diet-induced obese mice: chronic dosing (body weight, fed blood glucose); assay type: in vivo, mouse; conditions: DIO mice, after 8 days of treatment; 0.3 nmol/kg s.c. every day
Protocol: (§1) Compound 1 was evaluated for its ability to reduce foot intake and body weight and improve glucose homeostasis on repeat dosing in male DIO C57Bl/6 mice over a period of 8 days. Male DIO C57BL/6N mice (20 weeks of age, 14 weeks on high fat diet) were obtained from Taconic Laboratory. […] Animals were acclimated to the facility for at least one week prior to the start of the experiment.
(§2) The day prior to dosing, mice were grouped based on individual body weights. At 3:00-4:[…] for each of the next 8 days, animals and food intake were weighed. […] After 8 days, mice are fasted for 5 hours and then given a 2 g/kg bolus of glucose orally at t=0. At t=0, 30, 60, 90, and 120 minutes post glucose challenge blood glucose is measured and at t=0, 30, and 90 minutes blood in drawn to measure plasma insulin. […] All data are presented as the mean±SEM (FIG. 7, FIG. 8, and Tables 8-11).

[2] = OGTT in DIO mice after 8 days of treatment (blood glucose, insulin); assay type: in vivo, mouse; conditions: 8 days treatment, 0.3 nmol/kg s.c. every day
Protocol: as §1, §2

[3] = Single dose effect on food intake and body weight in Sprague-Dawley rats; assay type: in vivo, rat; parameters: body weight change: unit not given here; conditions: single dose 0.3 nmol/kg s.c.
Protocol: Compound 1 was evaluated for its ability to reduce foot intake and body weight in Sprague-Dawley after a single dose. The animals were obtained from Charles River Labs (Wilmington, Mass.) at 200-225 g body weight and used within one week of delivery. They were housed one per cage on alpha dry bedding and a plastic tube for enrichment in a temperature-controlled room with 12-hour light/dark cycle. […] Animal weights were taken and recorded for each rat prior to dosing.
Body weights and food intake were measured 1, 2 and 3 days after dosing and the percentages of weight loss and reduction in food intake were calculated. […] All data are presented as the mean±SEM (Tables 18-20).

Substance: Dulaglutide: long-acting GLP-1 receptor agonist, comparator
- fed Blood Glucose [1]: 114 ± 13 mg/dL
- blood glucose Delta AUC (OGTT) [2]: 6668 ± 1846 mg/dl/120 min
- blood glucose Total AUC (OGTT) [2]: 15758 ± 1054 mg/dl/120 min
- blood glucose during OGTT ([2]; 0 min after glucose challenge): 76 ± 9 mg/dL
- insulin during OGTT ([2]; 0 min after glucose challenge): 0.6 ± 0.1 ng/mL
- blood glucose during OGTT ([2]; 30 min after glucose challenge): 151 ± 14 mg/dL
- insulin during OGTT ([2]; 30 min after glucose challenge): 1.7 ± 0.2 ng/mL
- blood glucose during OGTT ([2]; 60 min after glucose challenge): 174 ± 17 mg/dL
- blood glucose during OGTT ([2]; 90 min after glucose challenge): 104 ± 10 mg/dL
- insulin during OGTT ([2]; 90 min after glucose challenge): 0.7 ± 0.2 ng/mL
- blood glucose during OGTT ([2]; 120 min after glucose challenge): 119 ± 9 mg/dL
- Total Food Consumption over three days [3]: 87.4 ± 2.0
- body weight change ([3]; Day 0): 0.0 ± 0.0
- daily food intake ([3]; Day 0): 26.6 ± 0.8
- absolute body weight ([3]; Day 0, in g (unit assumed)): 270.3 ± 3.0
- body weight change ([3]; Day 1): 10.6 ± 1.6
- daily food intake ([3]; Day 1): 27.3 ± 1.2
- absolute body weight ([3]; Day 1, in g (unit assumed)): 280.8 ± 4.2
- body weight change ([3]; Day 2): 22.5 ± 0.8
- daily food intake ([3]; Day 2): 30.0 ± 0.7
- absolute body weight ([3]; Day 2, in g (unit assumed)): 292.47 ± 3.6
- body weight change ([3]; Day 3): 28.7 ± 0.6
- daily food intake ([3]; Day 3): 30.1 ± 0.7
- absolute body weight ([3]; Day 3, in g (unit assumed)): 299.0 ± 3.3
- body weight change ([3]; Day −1 (relative to Day 0)): −6.3 ± 0.8
- absolute body weight ([3]; Day −1, in g (unit assumed)): 264.0 ± 3.1
